In ChEMBL document CHEMBL3758139, “Novel thiol-based histone deacetylase inhibitors bearing 3-phenyl-1H-pyrazole-5-carboxamide scaffold as surface recognition motif: Design, synthesis and SAR study” (Bioorg Med Chem Lett, 2016) one finds IC50 and Retention_time data, which are given here for 7 compounds.

The target in one series is Histone deacetylase. In words: Inhibition of HDAC in human HeLa nuclear extract. It is filed as protein assay.
Series [1] has as its target T1, Histone deacetylase 1 (Homo sapiens, UniProt Q13547). As to the kind of experiment: Inhibition of recombinant human HDAC1.
Series [2] has as its target T2, Protein deacetylase HDAC6 (Homo sapiens, UniProt Q9UBN7).
T2 sequence (Q9UBN7 whole entry): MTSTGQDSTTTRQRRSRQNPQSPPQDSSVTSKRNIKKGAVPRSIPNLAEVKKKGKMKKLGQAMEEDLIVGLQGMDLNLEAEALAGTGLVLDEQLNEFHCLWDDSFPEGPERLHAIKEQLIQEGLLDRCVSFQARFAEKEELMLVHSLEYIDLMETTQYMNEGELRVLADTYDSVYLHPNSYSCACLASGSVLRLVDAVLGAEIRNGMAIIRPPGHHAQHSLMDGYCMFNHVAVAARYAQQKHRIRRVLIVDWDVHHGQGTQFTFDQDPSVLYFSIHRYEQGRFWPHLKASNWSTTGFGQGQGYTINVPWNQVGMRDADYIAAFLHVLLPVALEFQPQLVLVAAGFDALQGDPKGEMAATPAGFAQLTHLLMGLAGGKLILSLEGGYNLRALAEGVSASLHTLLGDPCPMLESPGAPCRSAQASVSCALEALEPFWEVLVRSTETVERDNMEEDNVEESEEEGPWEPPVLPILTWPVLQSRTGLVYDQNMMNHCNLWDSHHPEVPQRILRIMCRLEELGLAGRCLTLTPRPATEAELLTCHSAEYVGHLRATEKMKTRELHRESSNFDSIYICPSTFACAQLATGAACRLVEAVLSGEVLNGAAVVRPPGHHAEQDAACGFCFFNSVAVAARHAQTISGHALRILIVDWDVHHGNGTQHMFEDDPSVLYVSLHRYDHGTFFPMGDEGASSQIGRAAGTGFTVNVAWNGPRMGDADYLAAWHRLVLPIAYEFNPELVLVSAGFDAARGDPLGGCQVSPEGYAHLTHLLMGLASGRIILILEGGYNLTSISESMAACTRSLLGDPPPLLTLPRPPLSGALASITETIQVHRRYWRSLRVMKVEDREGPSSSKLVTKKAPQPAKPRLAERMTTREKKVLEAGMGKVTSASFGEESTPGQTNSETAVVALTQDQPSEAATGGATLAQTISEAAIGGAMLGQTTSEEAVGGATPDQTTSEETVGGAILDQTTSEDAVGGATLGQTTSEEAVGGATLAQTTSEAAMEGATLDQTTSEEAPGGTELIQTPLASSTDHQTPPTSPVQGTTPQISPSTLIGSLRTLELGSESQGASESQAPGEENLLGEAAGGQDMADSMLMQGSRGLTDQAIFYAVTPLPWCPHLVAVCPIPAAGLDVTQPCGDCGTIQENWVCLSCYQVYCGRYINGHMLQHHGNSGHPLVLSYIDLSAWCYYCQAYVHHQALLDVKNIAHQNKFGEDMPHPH
As to the kind of experiment: Inhibition of recombinant human HDAC6.

A short description of series [3]: Retention time of the compound. It is filed as physicochemical.
Series [4] addresses T1, Histone deacetylase 1. In words: Inhibition of HDAC1 (unknown origin).
Another series deals with Histone deacetylase 2 (Homo sapiens, UniProt Q92769). As to the kind of experiment: Inhibition of HDAC2 (unknown origin).
A further series concerns the target Histone deacetylase 3 (Homo sapiens, UniProt O15379). As to the kind of experiment: Inhibition of HDAC3 (unknown origin).
A further series has as its target Histone deacetylase 4 (Homo sapiens, UniProt P56524). In words: Inhibition of HDAC4 (unknown origin).
Series [5] addresses T2, Protein deacetylase HDAC6. As to the kind of experiment: Inhibition of HDAC6 (unknown origin).
Another series addresses T3, Histone deacetylase 8 (Homo sapiens, UniProt Q9BY41).
T3 sequence (Q9BY41 whole entry): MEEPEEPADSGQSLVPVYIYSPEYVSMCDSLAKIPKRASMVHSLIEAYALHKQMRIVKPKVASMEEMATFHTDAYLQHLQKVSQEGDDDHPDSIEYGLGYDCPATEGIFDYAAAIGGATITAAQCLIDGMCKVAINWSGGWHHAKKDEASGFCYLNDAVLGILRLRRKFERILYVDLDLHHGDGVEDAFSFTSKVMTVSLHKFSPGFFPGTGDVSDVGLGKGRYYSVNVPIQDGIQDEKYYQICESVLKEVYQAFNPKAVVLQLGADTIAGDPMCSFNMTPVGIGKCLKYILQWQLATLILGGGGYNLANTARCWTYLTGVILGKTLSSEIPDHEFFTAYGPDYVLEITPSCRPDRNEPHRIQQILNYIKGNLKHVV
As to the kind of experiment: Inhibition of HDAC8 (unknown origin).

T1 sequence (Q13547 whole entry): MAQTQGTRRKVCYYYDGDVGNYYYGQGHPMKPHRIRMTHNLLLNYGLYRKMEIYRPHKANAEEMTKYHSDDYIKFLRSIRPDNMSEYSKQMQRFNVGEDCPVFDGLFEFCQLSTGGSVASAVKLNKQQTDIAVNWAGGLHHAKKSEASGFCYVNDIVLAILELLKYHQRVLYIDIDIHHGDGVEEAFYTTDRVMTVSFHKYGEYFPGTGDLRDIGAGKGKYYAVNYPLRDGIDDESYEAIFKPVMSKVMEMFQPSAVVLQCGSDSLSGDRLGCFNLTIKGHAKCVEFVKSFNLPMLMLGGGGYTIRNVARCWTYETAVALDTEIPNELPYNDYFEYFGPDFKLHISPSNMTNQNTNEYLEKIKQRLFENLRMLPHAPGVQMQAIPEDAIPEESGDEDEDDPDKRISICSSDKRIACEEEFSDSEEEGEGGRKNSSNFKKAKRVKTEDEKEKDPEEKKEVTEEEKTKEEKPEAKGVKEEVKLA
Histone deacetylase 3, sequence (O15379 whole entry): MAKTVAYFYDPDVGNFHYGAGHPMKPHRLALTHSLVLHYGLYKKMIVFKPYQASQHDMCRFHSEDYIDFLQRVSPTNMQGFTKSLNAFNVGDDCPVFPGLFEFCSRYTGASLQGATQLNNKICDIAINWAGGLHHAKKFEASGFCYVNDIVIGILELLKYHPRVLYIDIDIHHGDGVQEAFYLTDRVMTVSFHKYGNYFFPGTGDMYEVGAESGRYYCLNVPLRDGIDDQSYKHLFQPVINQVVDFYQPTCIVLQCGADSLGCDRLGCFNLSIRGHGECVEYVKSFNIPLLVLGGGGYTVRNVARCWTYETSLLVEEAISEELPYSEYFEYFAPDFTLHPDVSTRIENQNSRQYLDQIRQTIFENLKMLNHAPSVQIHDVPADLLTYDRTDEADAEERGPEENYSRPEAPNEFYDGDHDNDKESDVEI
Histone deacetylase 4, sequence (P56524 whole entry): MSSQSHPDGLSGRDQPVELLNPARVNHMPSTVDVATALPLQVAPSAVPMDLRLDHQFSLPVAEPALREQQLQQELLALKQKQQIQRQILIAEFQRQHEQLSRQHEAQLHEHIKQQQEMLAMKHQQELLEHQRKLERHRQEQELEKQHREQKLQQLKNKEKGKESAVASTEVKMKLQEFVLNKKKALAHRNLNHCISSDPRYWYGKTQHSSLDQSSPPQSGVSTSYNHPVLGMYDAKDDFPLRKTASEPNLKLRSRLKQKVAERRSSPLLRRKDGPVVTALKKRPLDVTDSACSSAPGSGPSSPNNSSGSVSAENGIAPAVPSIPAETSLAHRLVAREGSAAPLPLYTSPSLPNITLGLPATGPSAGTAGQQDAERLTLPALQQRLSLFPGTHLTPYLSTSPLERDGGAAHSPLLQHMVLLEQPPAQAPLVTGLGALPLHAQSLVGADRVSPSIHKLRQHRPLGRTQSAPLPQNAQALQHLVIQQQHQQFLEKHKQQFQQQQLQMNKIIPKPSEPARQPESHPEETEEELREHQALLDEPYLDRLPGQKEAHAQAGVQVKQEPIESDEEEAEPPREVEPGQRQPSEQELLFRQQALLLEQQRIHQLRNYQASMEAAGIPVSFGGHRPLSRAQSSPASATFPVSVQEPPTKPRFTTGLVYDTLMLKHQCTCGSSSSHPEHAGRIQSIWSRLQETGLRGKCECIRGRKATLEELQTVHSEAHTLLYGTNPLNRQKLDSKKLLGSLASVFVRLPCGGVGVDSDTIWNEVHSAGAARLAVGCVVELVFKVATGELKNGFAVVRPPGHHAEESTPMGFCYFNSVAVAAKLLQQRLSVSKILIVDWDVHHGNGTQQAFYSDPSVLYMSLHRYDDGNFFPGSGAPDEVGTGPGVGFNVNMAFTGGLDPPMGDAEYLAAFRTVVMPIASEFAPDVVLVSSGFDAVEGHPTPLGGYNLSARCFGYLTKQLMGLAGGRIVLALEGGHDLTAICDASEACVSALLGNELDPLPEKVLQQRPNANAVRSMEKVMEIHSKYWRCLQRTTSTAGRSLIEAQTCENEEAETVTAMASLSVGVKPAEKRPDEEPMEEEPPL
Histone deacetylase 2, sequence (Q92769 whole entry): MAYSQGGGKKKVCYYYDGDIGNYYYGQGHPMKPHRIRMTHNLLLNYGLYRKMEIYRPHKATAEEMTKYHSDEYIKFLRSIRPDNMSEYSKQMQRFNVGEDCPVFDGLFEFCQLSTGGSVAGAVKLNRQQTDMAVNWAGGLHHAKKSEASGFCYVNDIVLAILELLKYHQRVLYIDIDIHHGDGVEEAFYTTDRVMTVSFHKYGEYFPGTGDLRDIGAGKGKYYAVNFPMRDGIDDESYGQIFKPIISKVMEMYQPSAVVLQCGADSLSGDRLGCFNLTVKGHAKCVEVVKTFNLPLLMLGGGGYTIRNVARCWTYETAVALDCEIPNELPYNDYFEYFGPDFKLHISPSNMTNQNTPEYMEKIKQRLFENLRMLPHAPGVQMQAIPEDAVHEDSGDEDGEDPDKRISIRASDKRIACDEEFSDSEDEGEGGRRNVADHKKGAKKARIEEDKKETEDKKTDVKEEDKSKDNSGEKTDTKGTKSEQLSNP

As a reminder, the IC50 is the concentration at which inhibition is half-maximal. Turning to `O=C(NCCCCCS)c1cc(-c2ccc(F)cc2)on1`, the IC50 against Histone deacetylase is 3000 nM; at Histone deacetylase 1 [1] it was 2100 nM; in [2] it was 1300 nM. In addition, the Retention_time in series [3] came to 5 min.
For `O=C(NCCCCCS)c1cc(-c2ccc(F)cc2)[nH]n1`, the 50% inhibitory concentration (IC50) was found to be 1900 nM against Histone deacetylase, 2200 nM at Histone deacetylase 1 [1] and 1100 nM in series [2]. The same compound came in with a Retention_time in [3] of 2.85 min.
For `O=C(NCCCCS)c1cc(-c2ccc(F)cc2)on1`, in that order: greater than 10000 nM, greater than 10000 nM, 4900 nM and 4.24 min.
For `O=C(NCCS)c1cc(-c2ccc(F)cc2)on1`, in that order: greater than 10000 nM, greater than 10000 nM, 6500 nM and 2.91 min.
Take `O=C(NCCCS)c1cc(-c2ccc(F)cc2)on1`: the IC50 was greater than 10000 nM at Histone deacetylase, greater than 10000 nM at Histone deacetylase 1 [1] and 5800 nM in series [2]. In [3], the Retention_time turned out to be 3.37 min.
For the compound `CC(=O)SCCCCCCNC(=O)c1cc(-c2ccc(F)cc2)nn1C`, the IC50 at Histone deacetylase 1 [4] stood at 21 nM; on Histone deacetylase 2, 140 nM; on Histone deacetylase 3, 68 nM; against Histone deacetylase 4 it was 10000 nM; in series [5] it was 10000 nM; against Histone deacetylase 8, 4200 nM.
On to `O=C(NCCCCCCS)c1cc(-c2ccc(F)cc2)on1`, for which the IC50 stood at 980 nM on Histone deacetylase, 850 nM at Histone deacetylase 1 [1] and 880 nM in [2]. The compound also gave a Retention_time in [3] of 5.67 min.
